One experiment addresses T1, S. aureus RnpA (Staphylococcus aureus, UniProt P0A0H5).
T1 construct: made in house; host or cells: E. coli BL21 (DE3)
T1 sequence (P0A0H5 1-117): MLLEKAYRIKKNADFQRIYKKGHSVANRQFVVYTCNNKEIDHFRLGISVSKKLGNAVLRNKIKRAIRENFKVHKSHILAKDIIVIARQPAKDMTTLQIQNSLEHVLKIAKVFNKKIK
Description: In vitro RnpA mRNA degradation assay (RNase Alert FRET substrate). The class given is biochemical. To be noted: for IC50: in vitro RnpA-mediated RNA degradation, read-out: mRNA IC50; for RNA degradation inhibition in time course study: 50 µM compound, 30 min at 37 °C, Figure 2A. How it is done: (§1) His-tagged RnpA was purified as previously described. E. coli BL21 (DE3) cells harboring plasmid pEXP5-nt containing a hexahistidine tag fused to the N-terminus of S.aureus RnpA coding region were grown in LB supplemented with 50 µg mL^−1 ampicillin to OD600 = 0.6 and induced with 1mM isopropyl β-D-1-thiogalactopyranoside (IPTG) for three hours to induce protein expression. […] Cells were mechanically lysed by three passes at 18,000 psi through a French Pressure Cell Press (SLM-Aminco; Pittsford, NY, USA) and cell debris was removed by centrifugation at 17,000× g for 10 min at 4 °C. Supernatants were collected, filtered through a 0.2 micron syringe filter, then loaded onto a 5 mL HisPur cobalt column (ThermoFisher Scientific, Waltham, MA, U.S.A.) using the BioRad Maximizer Duo-Flow Medium Pressure Chromatography System. Protein was eluted using an imidazole gradient (80 mM to 500 mM). Fractions were assessed for RnpA presence and purity via SDS-PAGE analysis, Coomassie staining and Western blotting using an anti-His antibody (Invitrogen; Grand Island, NY, USA).
RnpA-mediated degradation was assessed using the Rnase Alert QC System (Thermofisher Scientific). 20 pmol of His-RnpA was combined with 0.4 μM (final concentration) FRET substrate and either DMSO (negative control) or compound ≤500 µM in 1× Rnase Alert Buffer. Reactions were assembled in 96-well PCR plates (BioRad) and incubated at 37 °C for 30 min in the BioRad CFX 96 Connect Real Time instrument, measuring fluorescence every 2 min at 490 nm excitation/520 nm emission. Percent inhibition of each compound was calculated at the 30 min time-point based on the following formula: (RFU of compound treated RnpA/RFU of DMSO-treated RnpA) × 100.

A further experiment has as its system S. aureus strain UAMS-1. The experiment is described as follows: Minimum inhibitory concentration (MIC) testing, CLSI broth microdilution. As to conditions: for MIC: Staphylococcus aureus, S. aureus strain UAMS-1, read-out: MIC. The class given is cell-based, Staphylococcus aureus. How it is done: Staphylococcus aureus strains UAMS-1 is a well-characterized antibiotic susceptible osteomyelitis clinical isolate (Blevins Infect. Immun 2003). For experiments, UAMS-1 was cultured in Mueller Hinton (MH) broth and processed as described below. Escherichia coli strain BL21 (DE3) was cultured in Luria–Bertani (LB) and supplemented with ampicillin (50 µg ml^−1) where indicated.
Minimum inhibitory concentration (MIC) was performed according to the Clinical and Laboratory Standards Institute (CLSI) guidelines. Briefly, individual wells of a 96-well microtiter plate were inoculated with 10^4 colony forming units (CFU) of S. aureus UAMS-1 containing two-fold increasing concentrations (0 µM to 100 µM) of the indicated antibiotic or putative RnpA inhibitor and grown at 37 °C for 16 h in MH broth. The MIC was defined as the lowest concentration of compound in which there was no visible bacterial growth detected by the unaided eye.

A further experiment has as its target T2, RNase P (RnpA + rnpB) (Staphylococcus aureus, UniProt P0A0H5).
T2 construct: made in house; host or cells: E. coli BL21 (DE3)
T2 sequence (P0A0H5 1-117): T1 sequence (P0A0H5 1-117)
Description: In vitro ptRNA^Tyr processing assay with reconstituted RNase P. It counts as biochemical. As to conditions: for IC50: in vitro ptRNA^Tyr processing, average of at least two tests, read-out: ptRNA IC50. How it is done: as §1
rnpB and RNA substrates (spa, ptRNA^Tyr) for RnpA functional assays, as well as mature tRNA were synthesized in vitro, as previously described. Each gene was PCR amplified using S. aureus UAMS-1 chromosomal DNA as a template and the corresponding oligonucleotide primer pairs, in which the forward primers contained an RNA polymerase T7 promoter sequence. The following primer pairs were used in this study (T7 promoter underlined): T7-rnpB forward—[…] and rnpB reverse—[…]; T7-ptRNA^Tyr forward—[…] and ptRNA^Tyr reverse—TGGTGGAG GGGGGCAGATTC; T7-spa forward—[…] CGACGTCCAG and spa reverse—[…]. Resulting PCR products were analyzed on a 0.8% agarose gel and purified using the Qiagen QIAquick Gel Extraction kit, according to the manufacturer’s instructions. In vitro transcription was performed using the TranscriptAid T7 High Yield Transcription kit (Fermentas; Burlington, ON, Canada) following manufacturer’s instructions. Following in vitro transcription, the RNA was treated with DNase I for 90 min and re-purified using the Qiagen RNeasy Mini kit. RNA was quantified using a NanoDrop2000 spectrophotometer.
S.aureus Rnase P activity assays were performed as previously described. Briefly, ptRNA^Tyr and rnpB RNA was denatured by heating to 95 °C for 5 min then slow cooled to room temperature. RNA species were then combined with 2× low salt buffer (50 mM Tris-HCl pH 8.0, 5 mM MgCl2) and incubated for 5 min at 37 °C. Rnase P was reconstituted by mixing an equal molar ratio of His-RnpA and rnpB for 15 min at 37 °C. […] Then, 5 pmol ptRNA^Tyr was added to each reaction and incubated for an additional 30 min at 37 °C. Reactions were stopped with 2× RNA loading dye (Thermo Scientific) and heating to 65 °C for 10 min. Samples were electrophoresed on a 7M urea/8% polyacrylamide gel then stained with 0.5 µg mL^−1 ethidium bromide. The BioRad EZ Gel Doc imaging system was used to visualize the RNA and relative abundance of mature tRNA^Tyr in the DMSO control or in the samples containing compound and analyzed using BioRad Image Lab densitometry software. The percent inhibitory activity of each compound was calculated using the following equation: (% experimental processing/% processing negative control) × 100.

Converted amounts (≈) assume the structure as drawn. “And” between values parts separate entries of the source, which are not always exact repeats. Identical values can stand only once. “Also recorded” adds a separate entry of the source. Like-named read-outs stand apart in the source and are kept apart here. Where only a bound is given, the exact number is not on record here.

What is called IC50 is the concentration at which inhibition is half-maximal. As usually defined, the MIC is the lowest concentration found to suppress growth.

Regarding `O=C(Nc1cccc(C(F)(F)F)c1)c1c(NC(=O)C(F)(F)F)sc2c1CCCC2` [RNP0016], at S. aureus RnpA, the “Inhibition of in vitro RnpA-mediated RNA degradation (in words)” value was “good inhibitory properties” and the IC50 was 45 µM. In the experiment on S. aureus strain UAMS-1 (UAMS1), the MIC is 3.12 µM and 1.36 µg/mL. Further, at RNase P (RnpA + rnpB), the “Inhibition of in vitro RnpA ptRNA processing (in words)” value is recorded as “good inhibitory properties” and the half-maximal inhibitory concentration (IC50) came to 52 µM.

As for `O=C(Nc1ccc(C(F)(F)F)cc1)c1c(NC(=O)C(F)(F)F)sc2c1CCCC2` [RNP0015], at S. aureus RnpA, the “Inhibition of in vitro RnpA-mediated RNA degradation (in words)” value is listed as “good inhibitory properties” and the IC50 was 43 µM. Also, the MIC in the experiment with S. aureus strain UAMS-1 (UAMS1) was 0.78 µM and 0.34 µg/mL. Moreover, the “Fold reduction of antimicrobial activity, six-membered vs seven-membered ring matched pair” value in the experiment with S. aureus strain UAMS-1 (matched molecular pairs) was “fourfold less potent”. In addition, at RNase P (RnpA + rnpB), the “Inhibition of in vitro RnpA ptRNA processing (in words)” value was “greatest inhibitory activity; also recorded: good inhibitory properties” and the IC50 is 46 µM.

`O=C(Nc1ccc(F)cc1)c1c(NC(=O)C(F)(F)F)sc2c1CCCCC2` [RNP0009]: on S. aureus RnpA, the “Inhibition of in vitro RnpA-mediated RNA degradation (in words)” value is given as “least effective” and the IC50 was above 250 µM. The MIC in the experiment with S. aureus strain UAMS-1 (UAMS1) is 0.78 µM and 0.32 µg/mL. Further, on RNase P (RnpA + rnpB), the “Inhibition of in vitro RnpA ptRNA processing (in words)” value is listed as “only inhibited the ptRNA processing function” and the IC50 was 79 µM.

As to `O=C(Nc1ccc(F)cc1)c1c(NC(=O)C(F)(F)F)sc2c1CCCC2` [RNP0014], on S. aureus RnpA, the “Inhibition of in vitro RnpA-mediated RNA degradation (in words)” value is “strongest inhibitor”, the “RNA degradation inhibition in time course study” value (from here on “RNA degradation inhibition”) is “varying degrees of RNA degradation inhibition” and the IC50 amounted to 6.4 µM. Further, the minimum inhibitory concentration (MIC) in the experiment with S. aureus strain UAMS-1 (UAMS1) is 6.25 µM and 2.4 µg/mL. In addition, on RNase P (RnpA + rnpB), the “Inhibition of in vitro RnpA ptRNA processing (in words)” value was “weak effects; also recorded: weak or no inhibitory activity” and the IC50 was 138 µM.

Turning to `O=C(Nc1cccc(C(F)(F)F)c1)c1c(NC(=O)C(F)(F)F)sc2c1CCCCC2` [RNP0011], on S. aureus RnpA, the “Inhibition of in vitro RnpA-mediated RNA degradation (in words)” value was “good inhibitory properties” and the IC50 turned out to be 59 µM. In the experiment with S. aureus strain UAMS-1 (UAMS1), the MIC is 0.391 µM and 0.18 µg/mL. For the same molecule, at RNase P (RnpA + rnpB), the “Inhibition of in vitro RnpA ptRNA processing (in words)” value is reported as “good inhibitory properties” and the IC50 was found to be 57 µM.

With `O=C(Nc1ccc(C(F)(F)F)cc1)c1c(NC(=O)C(F)(F)F)sc2c1CCCCC2` [RNP0012], at S. aureus RnpA, the “Inhibition of in vitro RnpA-mediated RNA degradation (in words)” value is on record as “good inhibitory properties”, the “RNA degradation inhibition” value is on record as “varying degrees of RNA degradation inhibition” and the IC50 was found to be 68 µM. In addition, in the experiment on S. aureus strain UAMS-1 (UAMS1), the MIC was 0.19 µM and 0.086 µg/mL. For the same molecule, the “Fold improvement in anti-staphylococcal activity (MIC) over JR1” value in the experiment with S. aureus strain UAMS-1 (compared with JR1) came to 6.6 fold. At RNase P (RnpA + rnpB), the “Inhibition of in vitro RnpA ptRNA processing (in words)” value is on record as “good inhibitory properties” and the half-maximal inhibitory concentration (IC50) was determined as 66 µM. The “Conversion of precursor tRNA to mature tRNA” value on RNase P (RnpA + rnpB) (0, 50, 250 or 500 µM, urea-PAGE, Figure 2B) was “reduced conversion of precursor tRNA to mature tRNA in a dose dependent manner”.

`O=C(Nc1cccc(F)c1)c1c(NC(=O)C(F)(F)F)sc2c1CCCC2` [RNP0013]: at S. aureus RnpA, the “Inhibition of in vitro RnpA-mediated RNA degradation (in words)” value is given as “good inhibitory properties” and the half-inhibitory concentration (IC50) amounted to 50 µM. The MIC in the experiment on S. aureus strain UAMS-1 (UAMS1) is 6.25 µM and 2.4 µg/mL. For the same molecule, the concentration for half-maximal inhibition (IC50) at RNase P (RnpA + rnpB) was 95 µM.

For the molecule `O=C(Nc1cccc(Cl)c1)c1c(NC(=O)C(F)(F)F)sc2c1CCCCC2` [RNP0007], on S. aureus RnpA, the “Inhibition of in vitro RnpA-mediated RNA degradation (in words)” value is on record as “least effective; also recorded: weakly inhibited”, the “RNA degradation inhibition” value is on record as “varying degrees of RNA degradation inhibition” and the IC50 was 175 µM. In addition, the MIC in the experiment on S. aureus strain UAMS-1 (UAMS1) was 0.391 µM and 0.16 µg/mL. Besides, on RNase P (RnpA + rnpB), the “Inhibition of in vitro RnpA ptRNA processing (in words)” value is given as “weakly inhibited” and the IC50 turned out to be 98 µM.

Turning to `O=C(Nc1cccc(F)c1)c1c(NC(=O)C(F)(F)F)sc2c1CCCCC2` [RNP0008], on S. aureus RnpA, the “Inhibition of in vitro RnpA-mediated RNA degradation (in words)” value is listed as “least effective”, the “RNA degradation inhibition” value is on record as “varying degrees of RNA degradation inhibition” and the IC50 turned out to be 245 µM. For the same molecule, the MIC in the experiment on S. aureus strain UAMS-1 (UAMS1) was 0.391 µM and 0.16 µg/mL. For the same molecule, at RNase P (RnpA + rnpB), the “Inhibition of in vitro RnpA ptRNA processing (in words)” value is on record as “only inhibited the ptRNA processing function” and the IC50 stood at 78 µM.

Regarding `Cc1cccc(NC(=O)c2c(NC(=O)C(F)(F)F)sc3c2CCCCC3)c1` [RNP0010], on S. aureus RnpA, the “Inhibition of in vitro RnpA-mediated RNA degradation (in words)” value is “least effective” and the IC50 was found to be 224 µM. Besides, in the experiment with S. aureus strain UAMS-1 (UAMS1, 16 h), the MIC was found to be 3.21 µM (≈ 1.27 µg/mL). The MIC with S. aureus strain UAMS-1 (UAMS1) was 3.12 µM and 1.24 µg/mL. Moreover, at RNase P (RnpA + rnpB), the “Inhibition of in vitro RnpA ptRNA processing (in words)” value is “only inhibited the ptRNA processing function” and the IC50 worked out at 70 µM.
